Experiments:
[1] = biological target: T1, PXR (Homo sapiens, UniProt O75469); assay: nuclear receptor cellular GAL4 reporter assay; format: cell-based
T1 construct: expressed in transfected cells

[2] = biological target: T2, A3 (h) (Homo sapiens, UniProt P0DMS8); assay: Cerep panel; format: binding
T2 construct: purchased Cerep (receptors, ion channels, transporters); Eurofins Panlabs (kinases)
T2 sequence (P0DMS8 1-318): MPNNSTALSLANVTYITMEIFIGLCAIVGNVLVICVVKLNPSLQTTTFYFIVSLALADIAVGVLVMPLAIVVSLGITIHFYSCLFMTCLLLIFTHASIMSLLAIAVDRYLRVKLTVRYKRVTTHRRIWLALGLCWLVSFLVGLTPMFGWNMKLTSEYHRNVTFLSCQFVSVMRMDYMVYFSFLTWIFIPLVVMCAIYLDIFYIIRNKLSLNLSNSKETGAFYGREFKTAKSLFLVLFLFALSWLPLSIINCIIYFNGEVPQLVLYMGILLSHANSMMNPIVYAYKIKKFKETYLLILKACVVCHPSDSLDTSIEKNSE
Description: (§1) 28 GPCRs were evaluated through cAMP or calcium FLIPR assays[67]. A panel of 52 different receptors, ion channels and transporters was tested by Cerep, Inc. (Redmond, WA). Kinase selectivity was conducted by Eurofins Panlabs Inc (St Charles, MO).

[3] = biological target: T3, D2S (h) (Homo sapiens, UniProt P14416); assay: Cerep panel; format: binding
T3 construct: purchased Cerep (receptors, ion channels, transporters); Eurofins Panlabs (kinases)
Description: (§2) A panel of 52 different receptors, ion channels and transporters was tested by Cerep, Inc. (Redmond, WA).

[4] = biological target: T4, H2 (h) (Homo sapiens, UniProt P25021); assay: Cerep panel; format: binding
T4 construct: purchased Cerep (receptors, ion channels, transporters); Eurofins Panlabs (kinases)
Description: as §2

[5] = biological target: T5, MC4 (h) (Homo sapiens, UniProt P32245); assay: Cerep panel; format: binding
T5 construct: purchased Cerep (receptors, ion channels, transporters); Eurofins Panlabs (kinases)
Description: as §2

[6] = biological target: T6, M2 (h) (Homo sapiens, UniProt P08172); assay: Cerep panel; format: binding
T6 construct: purchased Cerep (receptors, ion channels, transporters); Eurofins Panlabs (kinases)
Description: as §2

[7] = biological target: T7, delta 2 (h) (DOP) (Homo sapiens, UniProt P41143); assay: Cerep panel; format: binding
T7 construct: purchased Cerep (receptors, ion channels, transporters); Eurofins Panlabs (kinases)
Description: as §2

[8] = biological target: T8, 5-HT2A (h) (Homo sapiens, UniProt P28223); assay: Cerep panel; format: binding
T8 construct: purchased Cerep (receptors, ion channels, transporters); Eurofins Panlabs (kinases)
Description: as §2

[9] = biological target: T9, V1a (h) (Homo sapiens, UniProt P37288); assay: Cerep panel; format: binding
T9 construct: purchased Cerep (receptors, ion channels, transporters); Eurofins Panlabs (kinases)
Description: as §2

[10] = tested on: Cl- channel; assay: Cerep panel; format: binding
Description: as §2

[11] = biological target: T10, 5-HT-T (Homo sapiens, UniProt P31645); assay: Cerep panel; format: binding
T10 construct: purchased Cerep (receptors, ion channels, transporters); Eurofins Panlabs (kinases)
Description: (§3) 28 GPCRs were evaluated through cAMP or calcium FLIPR assays[67]. A panel of 52 different receptors, ion channels and transporters was tested by Cerep, Inc. (Redmond, WA).

[12] = biological target: 5HT1B (Homo sapiens, UniProt P28222); assay: GPCR panel, cAMP or calcium FLIPR assays; format: cell-based
Description: as §3

[13] = biological target: 5HT2A (Homo sapiens, UniProt P28223); assay: GPCR panel, cAMP or calcium FLIPR assays; format: cell-based
Description: as §3

[14] = biological target: 5HT7 (Homo sapiens, UniProt P34969); assay: GPCR panel, cAMP or calcium FLIPR assays; format: cell-based
Description: (§4) 28 GPCRs were evaluated through cAMP or calcium FLIPR assays[67].

[15] = biological target: ADRA1A (Homo sapiens, UniProt P35348); assay: GPCR panel, cAMP or calcium FLIPR assays; format: cell-based
Description: as §4

[16] = biological target: ADRA2B - AG (Homo sapiens, UniProt P18089); assay: GPCR panel, cAMP or calcium FLIPR assays; format: cell-based
Description: as §4

[17] = biological target: D2L (Homo sapiens, UniProt P14416); assay: GPCR panel, cAMP or calcium FLIPR assays; format: cell-based
Description: as §4

[18] = biological target: H1 (Homo sapiens, UniProt P35367); assay: GPCR panel, cAMP or calcium FLIPR assays; format: cell-based
Description: as §4

[19] = biological target: V1A (Homo sapiens, UniProt P37288); assay: GPCR panel, cAMP or calcium FLIPR assays; format: cell-based
Description: as §1

[20] = biological target: T11, ALK4(h) (Homo sapiens, UniProt P36896); assay: Kinase panel; format: biochemical
T11 construct: purchased Cerep (receptors, ion channels, transporters); Eurofins Panlabs (kinases)
Description: as §1

[21] = biological target: T12, Plk1(h) (Homo sapiens, UniProt P53350); assay: Kinase panel; format: biochemical
T12 construct: purchased Cerep (receptors, ion channels, transporters); Eurofins Panlabs (kinases)
Description: (§5) Kinase selectivity was conducted by Eurofins Panlabs Inc (St Charles, MO).

[22] = biological target: T13, Ret(h) (Homo sapiens, UniProt P07949); assay: Kinase panel; format: biochemical
T13 construct: purchased Cerep (receptors, ion channels, transporters); Eurofins Panlabs (kinases)
Description: as §5

[23] = biological target: T14, ROCK-I(h) (Homo sapiens, UniProt Q13464); assay: Kinase panel; format: biochemical
T14 construct: purchased Cerep (receptors, ion channels, transporters); Eurofins Panlabs (kinases)
Description: as §5

[24] = tested on: ex vivo stimulated IL-17A production in the blood; assay: mouse PK/PD model, ex vivo stimulated IL-17A production; conditions: 100 mg/kg oral; for inhibition at 100 mg/kg: 5-fold diluted blood
Description: Compound concentrations are also listed as undiluted (measured) and diluted (extrapolated) in Supplementary Table S2.

[25] = modeled plasma exposure in the CIA model; format: in vivo, mouse
[26] = tested on: IMQ-induced skin inflammation in mice; assay: imiquimod-induced dermal inflammation model; format: in vivo, mouse
[27] = biological target: 5HT2B (Homo sapiens, UniProt P41595); assay: Cerep panel; format: binding; design: purchased Cerep (receptors, ion channels, transporters); Eurofins Panlabs (kinases)
Chain of 5HT2B (P41595 whole entry): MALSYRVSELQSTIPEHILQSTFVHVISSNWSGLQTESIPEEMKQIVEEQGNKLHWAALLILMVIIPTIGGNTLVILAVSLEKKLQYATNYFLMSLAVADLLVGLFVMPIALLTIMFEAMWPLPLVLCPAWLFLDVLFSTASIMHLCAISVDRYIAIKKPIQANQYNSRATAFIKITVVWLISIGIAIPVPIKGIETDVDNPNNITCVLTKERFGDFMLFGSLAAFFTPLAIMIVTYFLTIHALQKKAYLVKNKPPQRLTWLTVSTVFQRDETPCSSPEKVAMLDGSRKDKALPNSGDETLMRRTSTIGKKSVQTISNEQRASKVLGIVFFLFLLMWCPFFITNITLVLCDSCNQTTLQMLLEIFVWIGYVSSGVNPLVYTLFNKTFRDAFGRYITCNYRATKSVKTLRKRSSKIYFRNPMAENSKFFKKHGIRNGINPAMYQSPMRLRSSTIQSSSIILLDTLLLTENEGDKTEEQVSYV
Description: as §2

Chain of V1A (P37288 whole entry): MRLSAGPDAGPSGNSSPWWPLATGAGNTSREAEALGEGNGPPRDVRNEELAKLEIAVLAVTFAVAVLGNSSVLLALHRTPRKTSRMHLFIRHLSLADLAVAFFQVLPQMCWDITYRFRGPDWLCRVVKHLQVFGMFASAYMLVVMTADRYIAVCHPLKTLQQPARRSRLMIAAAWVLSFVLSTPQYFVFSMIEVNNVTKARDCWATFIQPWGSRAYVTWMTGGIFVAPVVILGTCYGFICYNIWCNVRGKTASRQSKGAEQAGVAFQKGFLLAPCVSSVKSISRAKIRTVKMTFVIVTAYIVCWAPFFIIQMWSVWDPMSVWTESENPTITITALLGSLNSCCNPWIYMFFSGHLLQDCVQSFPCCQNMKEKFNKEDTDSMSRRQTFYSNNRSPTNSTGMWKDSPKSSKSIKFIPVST
T9 sequence (P37288 whole entry): as above
T12 sequence (P53350 whole entry): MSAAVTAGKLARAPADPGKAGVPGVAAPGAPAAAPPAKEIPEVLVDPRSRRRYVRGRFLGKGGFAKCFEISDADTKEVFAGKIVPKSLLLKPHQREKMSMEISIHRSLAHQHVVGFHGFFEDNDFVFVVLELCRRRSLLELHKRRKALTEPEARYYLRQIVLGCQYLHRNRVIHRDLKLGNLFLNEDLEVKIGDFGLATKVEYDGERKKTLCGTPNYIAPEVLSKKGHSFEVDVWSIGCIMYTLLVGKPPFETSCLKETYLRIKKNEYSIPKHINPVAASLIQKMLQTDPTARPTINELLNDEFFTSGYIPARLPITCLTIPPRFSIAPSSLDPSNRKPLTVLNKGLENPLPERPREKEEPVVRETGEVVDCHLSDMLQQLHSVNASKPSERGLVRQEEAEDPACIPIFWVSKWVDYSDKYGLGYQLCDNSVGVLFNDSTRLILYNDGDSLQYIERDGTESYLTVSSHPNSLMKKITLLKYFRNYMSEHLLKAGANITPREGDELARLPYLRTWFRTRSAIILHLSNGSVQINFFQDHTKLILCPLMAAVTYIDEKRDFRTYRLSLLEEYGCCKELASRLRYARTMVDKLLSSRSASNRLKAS
T8 sequence (P28223 whole entry): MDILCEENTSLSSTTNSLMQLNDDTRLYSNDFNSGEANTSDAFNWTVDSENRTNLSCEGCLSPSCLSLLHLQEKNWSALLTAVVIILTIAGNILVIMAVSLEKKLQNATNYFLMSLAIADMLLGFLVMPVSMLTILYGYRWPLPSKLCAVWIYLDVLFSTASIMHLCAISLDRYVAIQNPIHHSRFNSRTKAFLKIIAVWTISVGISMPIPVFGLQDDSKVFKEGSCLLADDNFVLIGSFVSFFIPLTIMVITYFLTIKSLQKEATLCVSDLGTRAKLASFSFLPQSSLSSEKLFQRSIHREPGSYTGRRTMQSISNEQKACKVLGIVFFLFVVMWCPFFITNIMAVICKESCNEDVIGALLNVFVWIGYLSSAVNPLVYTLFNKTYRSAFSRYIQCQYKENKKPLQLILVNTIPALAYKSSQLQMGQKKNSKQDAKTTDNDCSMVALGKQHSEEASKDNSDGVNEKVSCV
Chain of 5HT2A (P28223 whole entry, species assumed): as the sequence (P28223 whole entry) above
T11 sequence (P36896 24-505): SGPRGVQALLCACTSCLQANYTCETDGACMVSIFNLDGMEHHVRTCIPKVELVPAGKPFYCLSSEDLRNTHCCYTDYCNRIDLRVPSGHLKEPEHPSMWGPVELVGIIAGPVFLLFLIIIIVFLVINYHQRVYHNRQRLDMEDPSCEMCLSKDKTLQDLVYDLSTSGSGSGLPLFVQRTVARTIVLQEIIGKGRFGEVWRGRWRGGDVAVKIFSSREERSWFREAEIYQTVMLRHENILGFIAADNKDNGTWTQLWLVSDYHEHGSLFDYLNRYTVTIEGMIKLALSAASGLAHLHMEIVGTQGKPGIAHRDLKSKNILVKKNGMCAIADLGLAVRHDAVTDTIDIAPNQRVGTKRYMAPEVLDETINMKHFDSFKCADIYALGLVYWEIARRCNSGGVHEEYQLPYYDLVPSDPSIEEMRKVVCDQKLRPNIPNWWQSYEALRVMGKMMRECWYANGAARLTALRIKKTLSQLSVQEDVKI
Chain of D2L (P14416 whole entry): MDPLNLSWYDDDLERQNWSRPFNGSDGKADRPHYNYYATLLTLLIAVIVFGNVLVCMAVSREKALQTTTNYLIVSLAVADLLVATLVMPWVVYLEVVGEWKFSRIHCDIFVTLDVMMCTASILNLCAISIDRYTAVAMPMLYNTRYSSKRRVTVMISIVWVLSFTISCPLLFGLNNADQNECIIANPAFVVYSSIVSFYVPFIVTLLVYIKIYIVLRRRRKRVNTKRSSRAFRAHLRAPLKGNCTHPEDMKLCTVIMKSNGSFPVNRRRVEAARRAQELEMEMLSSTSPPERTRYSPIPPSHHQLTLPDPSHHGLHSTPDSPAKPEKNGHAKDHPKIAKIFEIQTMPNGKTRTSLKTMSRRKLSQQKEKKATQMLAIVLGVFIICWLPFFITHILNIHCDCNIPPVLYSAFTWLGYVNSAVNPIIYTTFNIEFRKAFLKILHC
T13 sequence (P07949 29-1114): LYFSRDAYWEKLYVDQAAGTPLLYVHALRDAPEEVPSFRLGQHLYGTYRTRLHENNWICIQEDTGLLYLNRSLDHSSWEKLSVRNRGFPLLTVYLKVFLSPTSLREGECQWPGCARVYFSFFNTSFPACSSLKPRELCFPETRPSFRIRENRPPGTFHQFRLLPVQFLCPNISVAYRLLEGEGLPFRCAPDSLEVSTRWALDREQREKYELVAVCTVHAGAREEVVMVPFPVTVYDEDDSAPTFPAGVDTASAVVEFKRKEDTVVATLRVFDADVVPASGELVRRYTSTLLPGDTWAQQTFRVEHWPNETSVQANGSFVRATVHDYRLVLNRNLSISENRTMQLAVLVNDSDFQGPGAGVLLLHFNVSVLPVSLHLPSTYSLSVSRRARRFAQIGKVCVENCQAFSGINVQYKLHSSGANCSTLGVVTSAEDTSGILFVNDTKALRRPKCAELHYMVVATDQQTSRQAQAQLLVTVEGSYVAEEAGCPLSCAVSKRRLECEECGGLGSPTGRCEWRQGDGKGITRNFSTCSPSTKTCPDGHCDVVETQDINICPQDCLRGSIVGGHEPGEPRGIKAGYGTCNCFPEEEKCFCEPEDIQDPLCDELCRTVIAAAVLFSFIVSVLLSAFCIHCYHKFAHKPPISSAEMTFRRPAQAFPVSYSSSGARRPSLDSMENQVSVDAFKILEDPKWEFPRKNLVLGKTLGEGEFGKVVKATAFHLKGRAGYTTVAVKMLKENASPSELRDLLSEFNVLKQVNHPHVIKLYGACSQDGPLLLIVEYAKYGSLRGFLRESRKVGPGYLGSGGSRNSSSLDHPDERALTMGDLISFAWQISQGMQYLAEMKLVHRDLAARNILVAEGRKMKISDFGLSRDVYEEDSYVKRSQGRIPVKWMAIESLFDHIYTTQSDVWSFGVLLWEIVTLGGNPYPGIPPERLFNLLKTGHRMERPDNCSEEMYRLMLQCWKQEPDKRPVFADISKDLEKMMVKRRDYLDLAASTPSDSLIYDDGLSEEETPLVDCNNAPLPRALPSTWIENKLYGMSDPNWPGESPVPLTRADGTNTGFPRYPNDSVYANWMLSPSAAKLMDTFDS
T3 sequence (P14416 1-414 isoform P14416-2): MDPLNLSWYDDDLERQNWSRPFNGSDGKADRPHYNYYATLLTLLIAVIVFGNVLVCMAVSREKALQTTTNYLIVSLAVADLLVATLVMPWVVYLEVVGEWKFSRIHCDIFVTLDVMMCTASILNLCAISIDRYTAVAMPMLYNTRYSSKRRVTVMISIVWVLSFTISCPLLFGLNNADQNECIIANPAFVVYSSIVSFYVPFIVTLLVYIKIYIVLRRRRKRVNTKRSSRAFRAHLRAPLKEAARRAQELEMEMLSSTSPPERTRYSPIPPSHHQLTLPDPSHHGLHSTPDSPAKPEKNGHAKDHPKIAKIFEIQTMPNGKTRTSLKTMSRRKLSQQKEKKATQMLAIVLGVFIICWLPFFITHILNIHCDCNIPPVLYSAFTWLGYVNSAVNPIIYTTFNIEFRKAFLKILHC

CC1CCCN1C(=O)c1nc(C(=O)NCC(C)(C)O)sc1-c1ccc(C(O)(C(F)(F)F)C(F)(F)F)c(Cl)c1Cl (centres unmarked) [JNJ-61803534]
mode of action on PXR [1]: possibly partial modulator
IC50 ([1]; agonist and antagonist mode): 0.34 µM
inhibition at 1 µM ([2]; 1 µM): < 10%
% Inhibition at 10 µM ([2]; 10 µM): 45.2%
inhibition at 10 µM ([2]; 10 µM): > 50%
inhibition at 1 µM [3]: < 10%
inhibition at 10 µM [3]: < 10%
inhibition at 1 µM [4]: < 10%
inhibition at 10 µM [4]: 16.6%
inhibition at 1 µM [5]: < 10%
inhibition at 10 µM [5]: < 10%
inhibition at 1 µM [6]: < 10%
inhibition at 10 µM [6]: < 10%
inhibition at 1 µM [7]: < 10%
inhibition at 10 µM [7]: < 10%
inhibition at 1 µM [8]: < 10%
inhibition at 10 µM [8]: < 10%
inhibition at 1 µM [9]: < 10%
inhibition at 10 µM [9]: 20.3%
% Inhibition at 1 µM ([10]; 1 µM): 10.5%
% Inhibition at 10 µM ([10]; 10 µM): 86.4%
inhibition at 1 µM [11]: < 10%
inhibition at 10 µM [11]: < 10%
EC50 ([12]; agonist): > 12.5 µM
IC50 ([12]; antagonist): > 12.5 µM
EC50 ([13]; agonist): > 10 µM
IC50 ([13]; antagonist): > 10 µM
EC50 ([14]; agonist): > 12.5 µM
IC50 ([14]; antagonist): > 12.5 µM
EC50 ([15]; agonist): > 10 µM
IC50 ([15]; antagonist): > 10 µM
EC50 ([16]; agonist): > 12.5 µM
IC50 ([16]; antagonist): > 12.5 µM
EC50 ([17]; agonist): > 12.5 µM
IC50 ([17]; antagonist): > 12.5 µM
EC50 ([18]; agonist): > 10 µM
IC50 ([18]; antagonist): > 10 µM
EC50 ([19]; agonist): > 10 µM
IC50 ([19]; antagonist): > 10 µM
activity at 1 µM [20]: 104%
activity at 10 µM [20]: 108%
activity at 1 µM [21]: 111%
activity at 10 µM [21]: 104%
activity at 1 µM [22]: 107%
activity at 10 µM [22]: 104%
activity at 1 µM [23]: 108%
activity at 10 µM [23]: 110%
inhibition at 100 mg/kg ([24]; 1 h post-dose): 86 ± 6.7%
inhibition at 100 mg/kg ([24]; 2 h post-dose): 89 ± 7.1%
inhibition at 100 mg/kg ([24]; 4 h post-dose): 72 ± 14%
inhibition at 100 mg/kg ([24]; 7 h post-dose): 75 ± 7.5%
inhibition at 100 mg/kg ([24]; 12 h post-dose): 62 ± 17%
inhibition at 100 mg/kg ([24]; 18 h post-dose, without statistical significance): 30 ± 60%
EC50 at 100 mg/kg ([24]; concentration in 5-fold diluted plasma, read-out: compound concentration for 50% inhibition of ex vivo IL-17A): 0.24 to 0.86 µM
Caverage ([25]; 3 mg/kg BID): 702 nM
Ctrough ([25]; 3 mg/kg BID): 74 nM
Caverage ([25]; 10 mg/kg BID): 2032 nM
Ctrough ([25]; 10 mg/kg BID): 211 nM
Caverage ([25]; 30 mg/kg BID): 6909 nM
Ctrough ([25]; 30 mg/kg BID): 716 nM
Caverage ([25]; 60 mg/kg QD): 6909 nM
Ctrough ([25]; 60 mg/kg QD): 26 nM
Caverage ([25]; 100 mg/kg BID): 20321 nM
Ctrough ([25]; 100 mg/kg BID): 2106 nM
IL-17A and IL-17F expression ([26]; 30 mg/kg, ears, RNA level): trend towards inhibition
IMQ-induced neutrophils and inflammatory monocytes infiltrations in the ear ([26]; 100 mg/kg): significantly reduced
IMQ-induced expression of IL-17A, IL-17F, and IL-22 genes ([26]; 100 mg/kg, ears, RNA level): significantly inhibited
disease scores (thickness, redness, scaling) of back skin ([26]; 30 and 100 mg/kg oral, dose-dependent): significantly reduced
IL-10 expression ([26]; 30 and 100 mg/kg, RNA level): not inhibited
IL-23R expression ([26]; 30 and 100 mg/kg, RNA level): trend towards inhibition
IFNγ expression ([26]; RNA level): minimally impacted
IL-17A- and IL-17A/IL-22-producing γδ T cell populations ([26]; ear skin and draining lymph nodes, dose-dependent): reduced
inhibition at 1 µM [27]: < 10%
inhibition at 10 µM [27]: 36.8%
